Assay results published in patent EP4389886A1, “LACTASE ENZYMES AND METHOD OF PRODUCING A MILK-BASED PRODUCT” (Novozymes A/S, priority 2022, dated 2024).
Where two headings read alike, the source gives them in different places.

How the values were obtained:
[1] = test system: experimental Bifidobacterium lactase; details: substrate lactose, cited from earlier work
[2] = test system: Saphera® (lactase, Novozymes A/S); experiment: Lactose turn-over per enzyme molecule in milk at 5°C; assay type: biochemical
Protocol: (§1) In a preferred embodiment, the enzyme having lactase activity has an initial lactose turn-over of at least 10 per second per enzyme molecule in milk at 5°C. The initial lactose turn-over may be determined, e.g., when 0-10% of the lactose has been hydrolyzed. The skilled person will know how to determine the initial lactose turn-over per enzyme molecule. For example, it can be a direct measurement of lactose using HPLC or indirect using a glucose detection method.

[3] = test system: Lactozym® Pure (lactase, Novozymes A/S); experiment: as above; assay type: biochemical
Protocol: as §1

[4] = initial rate (4.7% to 4.23% lactose)

## OC[C@H]1O[C@@H](O[C@H]2[C@H](O)[C@@H](O)C(O)O[C@@H]2CO)[C@H](O)[C@@H](O)[C@H]1O (some centres unmarked) [lactose]
[1]; at 5°C
  Km: 8 mM
[1]; at 37°C
  Km: 13 mM
[2]
  average lactose turn-over from initial lactose of 4.7% to 0.01% residual lactose: about 18 sec^-1
  average lactose turn-over from initial lactose of 4.7% to 0.1% residual lactose: about 23 sec^-1
[2]; [4]
  initial lactose turn-over per enzyme molecule: about 89 sec^-1
[3]
  average lactose turn-over from initial lactose of 4.7% to 0.01% residual lactose: about 5 sec^-1
  average lactose turn-over from initial lactose of 4.7% to 0.1% residual lactose: about 9 sec^-1
[3]; [4]
  initial lactose turn-over per enzyme molecule: about 36 sec^-1
